logP data for 24 molecules are collected here from the SangsterLogP compilation.

Usually logP stands for the decadic logarithm of the partition coefficient of the neutral form, usually between octanol and water. A lower logP goes with a more hydrophilic compound.

The nature of one data set: method code SF, from Fulcrand, P.; Berge, G.; Noel, A. (1978). Hydrazides as monoamine oxidase inhibitors. Hansch and Free Wilson correlations. Eur J Med Chem, 13(2)177-182.
`CC(C)NNC(=O)COc1ccc(Cl)cc1` yielded a logP of 2.01.

The nature of another data set: method code SF-AS, from Fulcrand, P.; Berge, G.; Noel, A. (1978). Hydrazides as monoamine oxidase inhibitors. Hansch and Free Wilson correlations. Eur J Med Chem, 13(2)177-182.
For `CC(C)NNC(=O)COc1ccccc1`, the logP was determined as 1.24.
On the same count and under the same terms, the same measure for `COc1cccc(OCC(=O)NNC(C)C)c1`: 1.33; for `CC(C)NNC(=O)C(C)Oc1ccccc1Cl` (centres undefined): 2; for `O=C(COc1ccccc1)NNCc1ccccc1`: 2.16.
The molecule `CC(NNC(=O)COc1ccccc1)c1ccccc1` (centres undefined) gave a lipophilicity (logP) of 2.46.
Still for that read-out and setting: the same measure for `CC(C)NNC(=O)C(C)(C)Oc1ccccc1`: 1.88; for `CCNNC(=O)COc1ccccc1`: 1.
The molecule `COc1ccc(OCC(=O)NNC(C)c2ccccc2)cc1` (centres undefined) came in with a log partition coefficient (logP) of 2.39.
As for `CC(C)NNC(=O)C(C)Oc1cccc(Cl)c1` (centres undefined), the logP was 2.18.
In turn, `CC(C)NNC(=O)C(C)Oc1ccccc1` (centres undefined) came in with a logP of 1.39.
The molecule `COc1ccc(OCC(=O)NNC(C)C)cc1` returned a logP of 1.21.
Molecule `CC(C)NNC(=O)COc1ccccc1Cl` registered a logP of 1.82.
In turn, `CC(C)NNC(=O)C(C)Oc1ccc(Cl)cc1` (centres undefined) had a logP of 2.14.
On the same count and under the same terms, the same measure for `Cc1ccccc1OCC(=O)NNC(C)C`: 1.83; for `CC(C)NNC(=O)COc1cccc(Cl)c1`: 1.91.
With `Cc1cccc(OC(C)C(=O)NNC(C)C)c1` (centres undefined), the logP worked out at 1.88.
As for `CCNNC(=O)COc1ccc(Cl)cc1`, the logP worked out at 1.73.
The same measure, in the same setting: under `COc1ccccc1OCC(=O)NNC(C)C` stands 1.11.
As to `CC(C)NNC(=O)C(C)(C)Oc1ccc(Cl)cc1`, the logP turned out to be 2.56.
Molecule `Cc1ccc(OCC(=O)NNC(C)C)cc1` had a logP of 1.81.
Turning to `O=C(COc1ccc(Cl)cc1)NNCc1ccccc1`, the logP came out at 2.92.
As for `Cc1ccc(OCC(=O)NNC(C)c2ccccc2)cc1` (centres undefined), the logP came out at 2.87.
As to `Cc1cccc(OCC(=O)NNC(C)C)c1`, the logP is 1.77.
